Source: patent publication US20240166599A1, “INDOLE DERIVATIVES AS SEROTONERGIC AGENTS USEFUL FOR THE TREATMENT OF DISORDERS RELATED THERETO” (Mindset Pharma Inc., priority 2021, published 2024)

Legend:
[1] = target: T1, human 5-HT2A (h5-HT2A) receptor (Homo sapiens, UniProt P28223); assay: FLIPR assay, human 5-HT2A, agonist mode; assay type: cell-based
T1 construct: expressed in transfected cells
Description: I.c. Experimental Methods and Procedures: • 1. […] One day before the assays, the cells were detached using TrypLE™ Express and cells were counted using cell counter. […] 20000 cells/well were seeded in 30 μl/well culture medium to a 384-well cell plate and cells were incubated overnight at 37° C., 5% (v/v) CO2. • 4. On the assay day, 2×dye solution was prepared following the manual of the FLIPR® Calcium 6 Assay Kit: i. The dye was diluted with assay buffer (20 mM HEPES in 1×HBSS, PH7.4); ii. Probenecid was added to the final concentration of 5 mM; iii. […] Medium was removed from cell plate by flicking the cell plate on towel papers. • 6. […] The cell plate was placed on plate shaker, the plate was agitated at 600 rpm for 2 minutes. The plate was incubated at 37° C. for 2 hours followed by additional 15-minute incubation at 25° C. • 8. 3×compound in assay buffer was prepared: a. Reference compounds were diluted to required concentration with DMSO. The compounds were added to a 384-well compound plate; b. Serial dilutions were performed; c. 10 mM test compounds were added to the compound plate, and 3-fold serial dilutions were performed. d. […] Add 20 μl/well assay buffer to the compound plate; f. […] The cell plate, compound plate and tips were put into FLIPR, 10 μl of 3× compound was transferred to the cell plate per well with FLIPR.
• i. […] Calculated the percentage activation by using following equation: […]

[2] = target: human 5-HT2A receptor (Homo sapiens, UniProt P28223); assay: biochemical
human 5-HT2A receptor, sequence (P28223 whole entry): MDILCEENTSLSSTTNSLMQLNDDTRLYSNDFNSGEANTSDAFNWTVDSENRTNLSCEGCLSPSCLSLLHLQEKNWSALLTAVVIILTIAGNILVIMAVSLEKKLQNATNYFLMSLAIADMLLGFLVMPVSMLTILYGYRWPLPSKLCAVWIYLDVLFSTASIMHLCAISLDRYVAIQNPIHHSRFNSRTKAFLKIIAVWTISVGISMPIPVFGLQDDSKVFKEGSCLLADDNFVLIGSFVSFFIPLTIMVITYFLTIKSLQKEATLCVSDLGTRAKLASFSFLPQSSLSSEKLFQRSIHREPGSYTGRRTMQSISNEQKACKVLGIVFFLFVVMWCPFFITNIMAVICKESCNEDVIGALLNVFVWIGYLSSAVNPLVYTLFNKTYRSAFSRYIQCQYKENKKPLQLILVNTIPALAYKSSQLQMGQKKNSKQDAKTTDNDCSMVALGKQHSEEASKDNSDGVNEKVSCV
Description: Human 5-HT2A: Radioligand Binding Assay:
II.3 Experiment Procedure: • i. Prepared the assay buffer following the table below;
• ii. Preparation of 8 doses of reference and test compounds starting from 10 mM stock solution as requested by 5-fold serial dilutions with 100%; • iii. Prepared (v/v) DMSO: a. 50 μl/well of 0.5% (v/v) PEI was added to UniFilter-96 GF/B plates. The plates were sealed and incubates at 4° C. for 3 hrs; b. After incubation, the plates were washed 3 times with ice-cold wash buffer (50 mM Tris, pH7.4); • iv. Preparation of assay plates: a. Cell membrane were diluted with assay buffer and 330 μl/well was added to 96 round deep well plates to reach a concentration of 20 μg/well; b. 8 concentrations of reference or test compounds were prepared and 110 μl/well was added to 96 round deep well plates; c. [3H]-ketanserin was diluted with assay buffer to 5 nM (5× final concentration) and 110 μl/well was added to 96 round deep well plates. • v. The plate was centrifuged at 1000 rpm for 30 secs and then agitated at 600 rpm, R.T. for 5 min. • vi. The plates were sealed and incubates at 27° C. for 90 min. • vii. The incubation was stopped by vacuum filtration onto GF/B filter plates followed by 4 times washing with ice-cold wash buffer (50 mM Tris, pH7.4). • viii. […] The filter plates were sealed and 40 μl/well of scintillation cocktail was added. • x. The plate was read by using a Microbeta2 microplate counter.
For reference and test compounds, the results are expressed as % Inhibition, using the normalization equation: N=100−100×(U−C2)/(C1−C2), where U is the unknown value, C1 is the average of high controls, and C2 is the average of low controls.

[3] = Liver microsomes stability, human; conditions: for Remaining Percentage (%) after 60 min, Human: human liver microsomes with NADPH, 2 μM; for half-life at 2 μM / microsomal CLint at 2 μM: human, microsomes
Description: (§1) The objective of this study was to estimate in vitro metabolic stability of representative compounds of the application in pooled human and male mouse liver microsomes. The concentrations of parent compounds in reaction systems were evaluated by LC-MS/MS for estimating the stability in pooled human and male mouse liver microsomes. The in vitro intrinsic clearances of test compounds were determined as well.
(§2) A master solution in the “Incubation Plate” containing phosphate buffer, ultra-pure H2O, MgCl2 solution and liver microsomes was made according to Table 3. The mixture was pre-warmed at 37° C. water bath for 5 minutes.
(§3) 40 μL of 10 mM NADPH solution was added to each well. The final concentration of NADPH was 1 mM. The negative control samples were prepared by replacing NADPH with 40 μL of ultra-pure H2O. Samples were prepared in duplicate. Negative controls were prepared in singlet.
(§4) The reaction was started with the addition of 4 μL of 200 μM test compounds or control compounds to each master solution to get the final concentration of 2 μM. This study was performed in duplicate.
(§5) Aliquots of 50 μL were taken from the reaction solution at 0, 15, 30, 45 and 60 minutes. The reaction solutions were stopped by the addition of 4 volumes of cold methanol with IS (100 nM alprazolam, 200 nM imipramine, 200 nM labetalol and 2 μM ketoprofen). Samples were centrifuged at 3,220 g for 40 minutes. Aliquot of 90 μL of the supernatant was mixed with 90 μL of ultra-pure H2O and then was used for LC-MS/MS analysis.
(§6) LC/MS analysis was performed for all samples from this study using a Shimadzu liquid chromatograph separation system equipped with degasser DGU-20A5R; solvent delivery unit LC-30AD; system controller SIL-30AC; column oven CTO-30A; CTC Analytics HTC PAL System. Mass spectrometric analysis was performed using an Triple Quad™ 5500 instrument.
(§7) All calculations were carried out using Microsoft Excel. Peak areas were determined from extracted ion chromatograms. The slope value, k, was determined by linear regression of the natural logarithm of the remaining percentage of the parent drug vs. incubation time curve.
(§8) The in vitro half-life (in vitro t1/2) was determined from the slope value:
(§9) Conversion of the in vitro t1/2 (min) into the in vitro intrinsic clearance (in vitro CLint, in μL/min/mg proteins) was done using the following equation (mean of duplicate determinations): […]

[4] = Liver microsomes stability, rat; conditions: for Remaining Percentage (%) after 60 min, Rat: rat liver microsomes with NADPH, 2 μM; for half-life at 2 μM / microsomal CLint at 2 μM: rat, microsomes
[5] = Liver microsomes stability, mouse; conditions: for half-life at 2 μM / microsomal CLint at 2 μM: male, mouse, microsomes; for Remaining Percentage (%) after 60 min, Mouse: mouse liver microsomes with NADPH, 2 μM
Description: as §1, §2, §3, §4, §5, §6, §7, §8, §9

T1 sequence (P28223 whole entry): as above

Row | Structure (SMILES) | EC50 [1] [nM] | IC50 [2] [nM] | Remaining Percentage (%) after 60 min, Human [3] [%] | half-life at 2 μM [3] [min] | microsomal CLint at 2 μM [3] [µL/min/mg] | Remaining Percentage (%) after 60 min, Rat [4] [%] | half-life at 2 μM [4] [min] | microsomal CLint at 2 μM [4] [µL/min/mg] | half-life at 2 μM [5] [min] | microsomal CLint at 2 μM [5] [µL/min/mg] | Remaining Percentage (%) after 60 min, Mouse [5] [%]
1 | CN(C)CCc1c[nH]c2ccccc12 [DMT, N,N-dimethyltryptamine, reference compound] | < 1000 | < 500 | – | – | – | – | – | – | – | – | –
2 | [2H]C([2H])([2H])N(C([2H])([2H])[2H])C([2H])([2H])C([2H])([2H])c1c[nH]c2ccccc12 [I-A-1, 2-(1H-indol-3-yl)-N,N-bis(methyl-d3)ethan-1-amine-1,1,2,2-d4] | < 1000 | < 500 | 0.46 | 7.73 | 19 | 9.38 | 17.6 | 39.7 | 87.2 | 39.2 | 62.07
3 | [2H]c1[nH]c2c([2H])c([2H])c([2H])c([2H])c2c1CCN(C)C [I-A-2, 2-(1H-indol-3-yl-2,4,5,6,7-d5)-N,N-dimethylethan-1-amine] | < 1000 | < 500 | 0.76 | 8.52 | 18.8 | 17.65 | 24 | 36 | 17.4 | 41.2 | 59.38
4 | [2H]C([2H])([2H])Oc1ccc2[nH]cc(C([2H])([2H])C([2H])([2H])N(C([2H])([2H])[2H])C([2H])([2H])[2H])c2c1 [I-A-6, 2-(5-(methoxy-d3)-1H-indol-3-yl)-N,N-bis(methyl-d3)ethan-1-amine-1,1,2,2-d4] | – | – | 15.50 | 2.3 | 16.4 | 5.25 | 9.88 | 9.26 | 97.5 | 36.8 | 65.29
